For assay [1], the target named is recombinant human GSK3 enzyme (GSK-3β). It counts as biochemical. The note with it: Kinase-Glo, 1 μM ATP, 25 μM substrate, 30 min at 30 °C. The protocol:
Measurement of the Inhibition of GSK-3β
The enzyme inhibition assays were performed using the luminometric methodology of kinase-Glo®. The recombinant human GSK3 enzyme (catalogue no. 14-306) was acquired from Upstate (Dundee, UK). The prephosphorylated polypeptide was synthesised by American Peptide Inc. (Sunnyvale, Calif.). The luminescent kinase kit (catalogue no. V6711) was obtained from Promega. The ATP and the other reagents were purchased from Sigma-Aldrich (St. Louis, Mo.).
The assays were performed in buffer using 96-well plates. 10µl of the compound to be assayed (dissolved in DMSO at a concentration of 1 mM, and, in turn, dissolved in buffer to the concentration necessary for the experiment) and 10µl (20 ng) of the enzyme are added to each well, followed by 20µl of buffer containing 25µM of the substrate and 1µM of ATP. […] Following a half-hour incubation at 30° C., the enzymatic reaction is stopped with 40µl of the kinase-Glo® reagent. The luminescence is measured after ten minutes, using a POLARstar Optima multimode reader. The activity is proportional to the difference between the total ATP and the ATP consumed. The inhibitory activities were calculated as a function of the maximum activity, measured in the absence of inhibitor.
A general note: In Kinase-Glo more light means more ATP remaining.

Assay [2] has as its system GSK-3β. It counts as biochemical, human. The protocol: The ATP concentrations were varied from 1 to 50 µM, whereas the concentration of the GS-2 peptide was kept constant at 12.5 µM. The concentrations of inhibitor (compound 6) used are shown in the plot.
The kinetic studies conducted by varying the ATP concentration from 1 to 50µM, and the concentration of inhibitor 6 from 5 to 10µM, were performed using the ADP-Glo™ Kinase Assay.

For assay [3], the system named is GSK-3β. It is filed as biochemical, human. The procedure:
The GS-2 concentrations were varied from 15.5 to 100 µM, whereas the ATP concentration was kept constant at 1 µM. The concentrations of inhibitor (compound 6) used are shown in the plot.
On the other hand, we also studied the dependence of GSK-3β activity in the presence of these inhibitors as a function of the concentration of the substrate, the GS-2 peptide, used in the assays.
This is another data set of the same source.

For assay [4], the system named is GSK-3β. As to the kind of experiment: Study of the inhibition of GSK-3β as a function of enzyme-inhibitor pre-incubation time. It is filed as biochemical, human. The procedure:
In order to determine the binding mode of these compounds, different kinetic studies were performed, varying the reaction times and the ATP concentration and the substrate concentration.

The mark [5] stands for this setting: GS-2 15.5 to 100 μM, ATP 1 μM, inhibitor 5 to 10 μM.

A word on the IC50: it is the concentration that gives 50% inhibition.

Like-named read-outs stand apart in the source and are kept apart here.

`CCCCCCCCCCCC(=O)NNC(=O)c1c(O)c2ccccc2n(C)c1=O` [Compound 4, N′-Dodecanoyl-4-hydroxy-1-methyl-2-oxo-1,2-dihydroquinoline-3-carbohydrazide]: the IC50 in assay [1] amounted to 7.35 ± 0.23 µM.
On to `CCCCCCCCCCCC(=O)NNC(=O)c1c(O)c2ccccc2n(CC)c1=O` [Compound 6, N′-Dodecanoyl-1-ethyl-4-hydroxy-2-oxo-1,2-dihydroquinoline-3-carbohydrazide], for which the “Michaelis-Menten constant (Km) in the presence of the inhibitor” value in the assay with GSK-3β [2] and in the assay with GSK-3β [3] was “remains invariable” each time. Moreover, the “mode of inhibition with respect to ATP” value in the assay with GSK-3β [2] (ATP 1 to 50 μM, GS-2 12.5 μM, inhibitor 5 to 10 μM) is reported as “non-ATP-competitive inhibitor”. The “maximum enzyme activity (Vmax) in the presence of the inhibitor” value is “decreases” with GSK-3β [2] (ATP 1 to 50 μM, inhibitor 5 to 10 μM) and “decreases” in the assay with GSK-3β [3] (setting [5]). In addition, the “mode of inhibition with respect to substrate GS-2” value in the assay on GSK-3β [3] (setting [5]) was “substrate-non-competitive inhibitor”. The “% inhibition of GSK-3β” value amounted to 27.42% in the assay on GSK-3β [4] ([Comp. 6] 5 μM, pre-incubation time E + I 0 min); 30.31% in the assay with GSK-3β [4] ([Comp. 6] 5 μM, pre-incubation time E + I 5 min); 30.18% in the assay with GSK-3β [4] ([Comp. 6] 5 μM, pre-incubation time E + I 10 min); 61.4% in the assay with GSK-3β [4] ([Comp. 6] 10 μM, pre-incubation time E + I 0 min); 63.04% with GSK-3β [4] ([Comp. 6] 10 μM, pre-incubation time E + I 5 min); 62.26% in the assay on GSK-3β [4] ([Comp. 6] 10 μM, pre-incubation time E + I 10 min). The “reversibility of GSK-3β inhibition” value in the assay with GSK-3β [4] (different enzyme incubation times, two inhibitor concentrations) is “reversible inhibitor”.
`CCCCCCCCCCCC(=O)N(Cc1ccccc1)NC(=O)c1c(O)c2ccccc2n(Cc2ccccc2)c1=O` [Compound 63, N′,1-Dibenzyl-N′-dodecanoyl-4-hydroxy-2-oxo-1,2-dihydroquinoline-3-carbohydrazide]: in assay [1], the IC50 worked out at 6.84 ± 0.51 µM.
